Like-named read-outs stand apart in the source and are kept apart here. Values belong to the compound of their own block, whether it stands above or below them.
Tests used:
[1] = human, 3 h, 5 µM
Description: (§1) Hepatocyte cell count was ~1.1–1.8 × 10^6 cells/mL. After 3 h, samples were quenched with 3 volumes of acetonitrile, vortex mixed, and centrifuged. The supernatant (5 µL) was analyzed by LC-MS using a Kinetex EVO C18 column (1.7 μm, 2.1 × 150 mm) at 40 °C with a flow rate of 0.4 mL/min. Mobile phase A was 20 mM ammonium acetate in water, and mobile phase B was acetonitrile. The column was initially held at 5% B for 2 min, increased to 75% B over 33 minutes, and then increased to 95% B over 3 min, where it was maintained for 3 minutes before returning to 5% B over 0.5 min for re-equilibration. Mass spectrometry data was acquired using positive ion mode and data-dependent MS^2 acquisition.

[2] = Metabolite profiling in rat bile, urine and feces (radio-HPLC, LC-HRMS); format: in vivo; details: for %rad in feces: pooled feces
Description: Tissue homogenate samples at 24 hours were extracted as plasma samples. […] The pooled urine samples containing 10% MeOH were analyzed by liquid chromatography-high resolution mass spectrometry (LC-HRMS).
The pooled bile sample containing 10% MeOH was analyzed by LC-HRMS.
Feces samples obtained from BDC and intact rats were pooled separately across time intervals for each animal (5% w/v) and further pooled across animals for each group to generate a 0–68 hour pooled sample. Approximately 1–2 g of each pooled feces sample was extracted as the same protocol used for plasma samples. […] The reconstituted samples were analyzed by LC-HRMS.
The reconstituted samples were analyzed by LC-HRMS, with eluent fractions collected at 10-second intervals into 96-well plates containing solid scintillant. Radioactivity in each well was determined using TopCount analysis, and radiochemical profiles were generated based on radioactivity counts. Structural elucidation was performed based on mass spectral interpretation to identify metabolites.
For metabolite profiling and identification, LC-MS analysis used a Shimadzu/Nexera LC-30 AD liquid chromatographic system and a ThermoFisher Scientific Q Exactive with a positive/negative heated electrospray interface. The column was a Waters XSelect HSS T3 4.6 mm × 250 mm, 3.5 µm and maintained at 40 °C. The mobile phases were (A) 20 mM ammonium acetate in water and (B) acetonitrile. […] The flow was 1 mL/min and split 20% to mass analysis and 80% collected for radioactivity counting. Mass spectrometry data was acquired with full scans at a resolution of 70,000 for a m/z range of 300 to 1500, and MS/MS scans were acquired at a resolution of 17,500. The mass spectrometer was operated with a normalized collision energy of 30 (ESI+), S-Lens RF level of 60, source voltage of +3.5 kV, Capillary temperature of 320 °C, and Probe heater temperature of 300 °C.

[3] = Protein binding by equilibrium dialysis (plasma, tissue homogenates, DPBS); format: in vitro ADME, rat; details: rat, plasma
Description: Control plasma was purchased from BioIVT, Hicksville, New York. Pooled plasma was obtained from at least three rats with K2EDTA as the anticoagulant. Control plasma was used to test the suitability of the system and for positive control analysis. Dulbecco’s phosphate-buffered saline (DPBS) (Millipore Sigma, St Louis, Missouri) was used to test the suitability of the system and as the receiver side of the dialysis device. […] The stock solution was added to the matrix (plasma or DPBS) and swirled to mix. The fortified matrix was then incubated at 37 °C for 15 min. Triplicate aliquots of the fortified matrix were analyzed by LSC.
The high throughput dialysis apparatus, model HTD96b, was used (HTDialysis LLC, Gales Ferry, Connecticut). Prior to assembly, dialysis membrane strips (molecular weight cutoff of 6–8 kDa) were hydrated, and the Teflon bars were assembled according to manufacturer’s instructions, with dialysis membrane strips laid between bars creating two compartments per well. The assembled unit was locked in place in the steel base plate. A 150 µL aliquot of each fortified matrix (tissue homogenates, plasma, or DPBS) and DPBS were added to the donor and receiver side of the HTD wells in a Teflon plate, respectively, and the plate was sealed. Samples were incubated at 37 °C and rotated at 300 rpm for 7 hours. After incubation, the seal was removed, and tissue homogenates, plasma, or DPBS and dialysate from each device insert were analyzed by LSC. All protein binding determinations were performed in triplicate.
Dialysis was performed accordingly. The radioactivity concentration of the test article in the donor and receiver samples was determined by LSC (count time 60 min) for the calculation of protein binding. […] After the designated time, aliquots of the individual donor and receiver samples were removed and analyzed by LSC. The remaining sample volume was stored at −20 °C.
Dialysis was performed accordingly.
Protein binding by equilibrium dialysis:1 PercentDrugBound=(Cm-Cd)/Cm×100 2 PercentDrugUnbound=100-PercentBound where: Cd, concentration of test article in dialysate at equilibrium; Cm, Concentration of test article in matrix at equilibrium.
Recovery from equilibrium dialysis:3 Recovery(%)=(Cm×Vm)+(Cd×Vd)/(Co×Vo)×100 where: Cm, Concentration of test article in matrix at equilibrium; Cd, Concentration of test article in dialysate at equilibrium; Co, Original concentration of test article in matrix prior to loading the dialysis device; Vm, Nominal volume of the matrix at equilibrium; Vd, Nominal volume of the dialysate at equilibrium; Vo, Nominal volume of the original matrix added to the dialysis device.

[4] = male, Wistar Han, rat, 3 h, 5 µM
Description: as §1

[5] = In vitro metabolism in rat hepatocytes; details: 5 µM A947, 3 hr
Description: as §1

[6] = In vitro metabolism in human hepatocytes; details: human hepatocytes, 5 µM A947, 3 hr
Description: as §1

[7] = IV 4 mg/kg, pooled 0–168-hour bile
[8] = Sprague Dawley, in vivo, iv, 4 mg/kg

SMILES: Nc1nnc(-c2ccccc2O)cc1N1CC2CCC(C1)N2c1ccnc(O)c1 [M5]
Estimated relative distribution percent of mass spectral abundance [1]: 0.1%
%Rad in bile [2, 7]: 1.49%
%rad in feces ([2]; IV 4 mg/kg): 1.86%
%rad in urine ([2]; IV 4 mg/kg, pooled urine): 7.53%

SMILES: CC(C)C(C(=O)O)c1cc(N2CCC(CN3CCC(OC4CC(Oc5cc(N6C7CCC6CN(c6cc(-c8ccccc8O)nnc6N)C7)ccn5)C4)CC3)CC2)no1 (stereo not drawn) [M9]
%Rad in bile [2, 8]: 3.08%

Percent Unbound ([3]; 7 h, 3000 ng/mL): approximately 1.5%
fraction unbound at 7 h, 3000 ng/mL ([3]; Fu): 0.015
fraction unbound at 7 h, 3000 ng/mL ([3]; Percent Unbound): 0.0146
SMILES: CC(=O)CC(c1ccccc1)c1c(O)c2ccccc2oc1=O (stereo not drawn) [14C-warfarin, warfarin, reference compound]

SMILES: Nc1nnc(-c2ccccc2O)cc1N1CC2CCC(C1)N2c1ccnc(OC2CC(O)C2)c1 (stereo not drawn) [M11]
Estimated relative distribution percent of mass spectral abundance [1]: 0.8%
%Rad in bile [2, 7]: 2.79%
%rad in feces ([2]; IV 4 mg/kg): 4.34%
%rad in urine ([2]; IV 4 mg/kg, pooled urine): 2.93%
Estimated relative distribution percent of mass spectral abundance [4]: 0.8%

SMILES: Cc1ncsc1-c1ccc(C(C)NC(=O)C2CC(OC3OC(C(=O)O)C(O)C(O)C3O)CN2C(=O)C(c2cc(N3CCC(CN4CCC(OC5CC(Oc6cc(N7C8CCC7CN(c7cc(-c9ccccc9OC9OC(C(=O)O)C(O)C(O)C9O)nnc7N)C8)ccn6)C5)CC4)CC3)no2)C(C)C)cc1 (stereo not drawn) [M17]
%rad in urine [2, 8]: 21.86%

Estimated relative distribution percent of mass spectral abundance [5]: 0.2%
Estimated relative distribution percent of mass spectral abundance [6]: 0.04%
SMILES: Cc1ncsc1-c1ccc(C(C)NC(=O)C2CC(O)CN2C(=O)C(c2cc(N3CCC(C(=O)O)CC3)no2)C(C)C)cc1 (stereo not drawn) [M3]

SMILES: CC(C)C(C(=O)N1CC(O)CC1C(=O)O)c1cc(N2CCC(CN3CCC(OC4CC(Oc5cc(N6C7CCC6CN(c6cc(-c8ccccc8O)nnc6N)C7)ccn5)C4)CC3)CC2)no1 (stereo not drawn) [M8]
%Rad in bile [2, 8]: 3.47%

SMILES: Nc1nnc(-c2ccccc2O)cc1N1CC2CCC(C1)N2c1ccnc(OC2CC(OC3CCN(C=O)CC3)C2)c1 (stereo not drawn) [M18]
%Rad in bile [2, 8]: 6.31%

SMILES: Nc1nnc(-c2ccccc2O)cc1N1CC2CCC(C1)N2c1ccnc(OC2CC(OC3CCNCC3)C2)c1 (stereo not drawn) [M10]
Estimated relative distribution percent of mass spectral abundance [1]: 2.6%
%Rad in bile [2, 7]: 4.48%
Estimated relative distribution percent of mass spectral abundance [4]: 2.2%

From article PMC11099041, “Tissue distribution and retention drives efficacy of rapidly clearing VHL-based PROTACs” (Communications Medicine, 2024)
